Values quoted from earlier work in US20030008852A1, “Transdermal system containing acetylsalicylic acid for treatment of migraine” (priority 1999, published 2003).

Tested on: migraine
Conditions: oral, 235 mg every second day

## CC(=O)Oc1ccccc1C(=O)O [acetylsalicylic acid]
  reduction in the migraine recurrence rate compared with the placebo group: 20%
